Laboratory results from patent publication US7157083B2, “Compositions and methods for treating retroviral infections” (priority 1998, dated 2007).
Where two headings read alike, the source gives them in different places.

Experiments:
ROJO (low passage HIV-1) [1] = assay: Study 2 hyaluronidase chronic overlay testing: RT activity after secondary ROJO infection; format: cell-based; settings: Table 5
Text: (§1) Percent virus control (% VC) in the following tables is the mean RT activity (cpm) as a percentage of a virus control. Percent cell control (% CC) is the mean XTT absorbance as a percentage of a cell control.
Method A. Peripheral blood monocytes were isolated from normal HIV-1 negative donors by plastic adherence following ficall hypaque purification of the buffy coat PBMCs. For isolation of adherent cells, 3×10^6/ml non-PHA stimulated peripheral blood cells were resuspended in Hanks buffered saline (with calcium and magnesium) supplemented with 10% human AB serum, and 200 μl per well placed in a 96 well lat bottomed microtiter plate. The cells were incubated overnight at 37° C., 5% CO2. Non-adherent cells were removed by washing six time with a Ca^++, Mg^++ containing medium. The adherent cells after the final wash were supplemented with RPMI 1640 supplemented with 15% fetal bovine serum (heat inactivated), 2 mM L-glutamine, 100 U/mL penicillin, 100 μg/mL streptomycin and 10 μg/mL gentamycin, and cultured for 7 days. The cultures were washed one final time before addition of compounds to remove any non-adherent cells. The cultures are carefully monitored for confluency prior to assay.
Reverse transcriptase (RT) activity was measured in cell-free supernatants. Tritiated thymidine triphosphate (NEN) (TTP) was resuspended in distilled H2O at […]. Poly rA and oligo dT were prepared as a stock solution which was kept at −20° C. The RT reaction buffer was prepared fresh on a daily basis and consists of 125 μL 1.0 M EGTA, 125 μL d H2O, 110 μL 10% SDS, 50 μL 1.0 M Tris (pH 7.4), 50 μL 1.0 M DTT, and 40μ1.0 M MgCl2. These three solutions were mixed together in a ratio of 2 parts TTP, 1 part poly rA:oligo dT, and 1 part reaction buffer. Ten microliters of this reaction mixture was placed in a round bottom microtiter plate and 15 μL of virus containing supernatant was added and mixed. The plate was incubated at 37° C. in a water bath with a solid support to prevent submersion of the plate and incubated for 60 minutes. Following reaction, the reaction volume was spotted onto pieces of DE81 paper, washed 5 times for 5 minutes each in a 5% sodium phosphate buffer, 2 times for 1 minute each in distilled water, 2 times for 1 minute each in 70% ethanol, and then dried. Opti-Fluor O was added to each sample and incorporated radioactivity was quantitated utilizing a Wallace 1450 Microbetaplus liquid scintillation counter.
Assay method. Seven day old Rojo chronically infected (and uninfected control) PBMCs are pre-treated with two fold dilutions of HLDA-1 for 48 hours. Treated cells are 2× washed with PBS and overlayed onto seven day old macrophages for 72 hours at which time the PBMCs were washed off and replaced with fresh uninfected pha blast PBMCs in the presence of IL-1 (5.0 ng/mL) and IL-2 (20U/mL). Overlayed cells are incubated for 48 hours 50% of cells transferred to a fresh 96 well plate, and then both the original and transfer plate infected with ROJO at a standard MOI. Samples for reverse transcriptase and toxicity testing were processed on day 7 post secondary infection.

ROJO (low passage HIV-1) [2] = assay: Study 4 sensitization, Turpin and standard macrophages: RT activity after Rojo challenge; format: cell-based; settings: Rojo Sensitized
Procedure: as §1
The macrophage plates were then washed with HBSS multiple times. Fresh mixed pha blast PBMCs (5×10e4/well) were placed on the macrophage cells, allowed to incubate for 72 hours and then harvested and reset in a fresh 96 well plate. The PBMCs were then challenged overnight with the respective virus (IIIB or Rojo) at a standard MOI for that virus. The PBMCs were 5× in plate spin washed with DPBS, incubated 24 hours, at which time 5×10e4 fresh pha blast PBMCs/well were added. The culture was incubated an additional 6 days and then assayed for RT activity.
Where viability corrections were conducted, they were performed by dividing the RT CPM value by the toxicity absorbance in order to compensate for well to well variations noted in the cell titer toxicity noted.

HIV-1 = settings: Assay #8
Procedure: Reverse transcriptase (RT) activity was measured in cell-free supernatants. Tritiated thymidine triphosphate (NEN) (TTP) was resuspended in distilled H2O at 5 Cl/mL. Poly rA and oligo dT were prepared as a stock solution which was kept at −20° C. The RT reaction buffer was prepared fresh on a daily basis and consists of 125 μL 1.0 M EGTA, 125 μL d H2O, 110 μL 10% SDS, 50 μL 1.0 M Tris (pH 7.4), 50 μL 1.0 M DTT, and 40μ1.0 M MgCl2. These three solutions were mixed together in a ratio of 2 parts TTP, 1 part poly rA:oligo dT, and 1 part reaction buffer. Ten microliters of this reaction mixture was placed in a round bottom microtiter plate and 15 μL of virus containing supernatant was added and mixed. The plate was incubated at 37° C. in a water bath with a solid support to prevent submersion of the plate and incubated for 60 minutes. Following reaction, the reaction volume was spotted onto pieces of DE81 paper, washed 5 times for 5 minutes each in a 5% sodium phosphate buffer, 2 times for 1 minute each in distilled water, 2 times for 1 minute each in 70% ethanol, and then dried. Opti-Fluor O was added to each sample and incorporated radioactivity was quantitated utilizing a Wallace 1450 Microbetaplus liquid scintillation counter.
Control groups were not treated with the enzyme.

For Hyaluronidase, the “RT activity % VC” value (ROJO (low passage HIV-1) [1]; 7.5 units/mL, Rojo chronic PBMCs, Macrophage + PBMCs) was 476.0%, the “RT activity % VC” value (ROJO (low passage HIV-1) [1]; 7.5 units/mL, Rojo chronic PBMCs, Transfer PBMCs) was 792.6% and the “RT activity % VC” value (ROJO (low passage HIV-1) [1]; 10 units/mL, Rojo chronic PBMCs, Transfer PBMCs) was 730.4%. The “RT activity % VC” value (ROJO (low passage HIV-1) [1]; 10 units/mL, control uninfected PBMCs, Macrophage + PBMCs) was 965.0%, the “RT activity % VC” value (ROJO (low passage HIV-1) [1]; 20 units/mL, Rojo chronic PBMCs, Macrophage + PBMCs) was 375.9% and the “RT activity % VC” value (ROJO (low passage HIV-1) [1]; 20 units/mL, Rojo chronic PBMCs, Transfer PBMCs) was 284.2%. For the same substance, the “RT activity % VC” value (ROJO (low passage HIV-1) [1]; 20 units/mL, control uninfected PBMCs, Macrophage + PBMCs) was 196.8%, the “RT activity % VC” value (ROJO (low passage HIV-1) [1]; 20 units/mL, control uninfected PBMCs, Transfer PBMCs) was 383.0% and the “RT activity % VC” value (ROJO (low passage HIV-1) [1]; 30 units/mL, Rojo chronic PBMCs, Macrophage + PBMCs) was 291.8%. For the same substance, the “RT activity % VC” value (ROJO (low passage HIV-1) [1]; 30 units/mL, Rojo chronic PBMCs, Transfer PBMCs) was 222.3%, the “RT activity % VC” value (ROJO (low passage HIV-1) [1]; 30 units/mL, control uninfected PBMCs, Macrophage + PBMCs) was 163.1% and the “RT activity % VC” value (ROJO (low passage HIV-1) [1]; 30 units/mL, control uninfected PBMCs, Transfer PBMCs) was 142.7%. For the same substance, the “RT activity % VC” value (ROJO (low passage HIV-1) [2]; 0.390625 μg/mL, Standard) was 50.4%, the “RT activity % VC” value (ROJO (low passage HIV-1) [2]; 0.390625 μg/mL, Turpin) was 69.6% and the “RT activity % VC” value (ROJO (low passage HIV-1) [2]; 0.78125 μg/mL, Standard) was 59.9%. For the same substance, the “RT activity % VC” value (ROJO (low passage HIV-1) [2]; 0.78125 μg/mL, Turpin) was 48.6%, the “RT activity % VC” value (ROJO (low passage HIV-1) [2]; 1.5625 μg/mL, Turpin) was 61.1% and the “RT activity % VC” value (ROJO (low passage HIV-1) [2]; 3.125 μg/mL, Standard) was 55.8%. For the same substance, the “RT activity % VC” value (ROJO (low passage HIV-1) [2]; 3.125 μg/mL, Turpin) was 45.6%, the “RT activity % VC” value (ROJO (low passage HIV-1) [2]; 6.25 μg/mL, Standard) was 57.7% and the “RT activity % VC” value (ROJO (low passage HIV-1) [2]; 6.25 μg/mL, Turpin) was 39.4%. For the same substance, the “RT activity % VC” value (ROJO (low passage HIV-1) [2]; 25 μg/mL, Standard) was 21.0%, the “RT activity % VC” value (ROJO (low passage HIV-1) [2]; 25 μg/mL, Turpin) was 15.5% and the “RT activity % VC” value (ROJO (low passage HIV-1) [2]; viability corrected, 0.097656 μg/mL, Standard) was 66.0%. The “RT activity % VC” value (ROJO (low passage HIV-1) [2]; viability corrected, 0.097656 μg/mL, Turpin) was 94.1%, the “RT activity % VC” value (ROJO (low passage HIV-1) [2]; viability corrected, 0.390625 μg/mL, Standard) was 52.2% and the “RT activity % VC” value (ROJO (low passage HIV-1) [2]; viability corrected, 0.78125 μg/mL, Standard) was 55.1%. For the same substance, the “RT activity % VC” value (ROJO (low passage HIV-1) [2]; viability corrected, 0.78125 μg/mL, Turpin) was 56.9%, the “RT activity % VC” value (ROJO (low passage HIV-1) [2]; viability corrected, 1.5625 μg/mL, Standard) was 57.0% and the “RT activity % VC” value (ROJO (low passage HIV-1) [2]; viability corrected, 1.5625 μg/mL, Turpin) was 69.1%. For the same substance, the “RT activity % VC” value (ROJO (low passage HIV-1) [2]; viability corrected, 3.125 μg/mL, Standard) was 53.4%, the “RT activity % VC” value (ROJO (low passage HIV-1) [2]; viability corrected, 3.125 μg/mL, Turpin) was 55.5% and the “RT activity % VC” value (ROJO (low passage HIV-1) [2]; viability corrected, 6.25 μg/mL, Standard) was 56.6%. The “RT activity % VC” value (ROJO (low passage HIV-1) [2]; viability corrected, 6.25 μg/mL, Turpin) was 48.5%, the “RT activity % VC” value (ROJO (low passage HIV-1) [2]; viability corrected, 25 μg/mL, Turpin) was 25.6% and the “% Control” value (HIV-1; 5 mg/mL) was 171.3%. The “Mean RT” value (HIV-1; 5 mg/mL) was 30167.3 cpm, the “% Control” value (HIV-1; 10 mg/mL) was 63.8% and the “Mean RT” value (HIV-1; 10 mg/mL) was 11241 cpm. The “% Control” value (HIV-1; 20 mg/mL) was 51.2%, the “Mean RT” value (HIV-1; 20 mg/mL) was 9014.3 cpm and the “% Control, Sum” value (HIV-1; Sum over 20, 10, 5 mg/mL) was 286.3%. For the same substance, the “Mean RT, Sum” value (HIV-1; Sum over 20, 10, 5 mg/mL) was 50422.6 cpm.
